#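 Method: 48-hour compound exposure of cells in 96-well plates, five concentrations, linear interpolation of endpoints. Abbreviation: GI50, concentration required for 50% inhibition of growth.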 Calls of active or inactive are those of the source. Rule as the data show it: active = GI50 up to about 1.1 µM and inactive = higher.
# Tests used:
# Experiment in all cases: inhibition of tumour cell growth, NCI panel, 48 h
# [1] = tested on: A498
# [2] = tested on: OVCAR-4
# [3] = tested on: RXF 393
# [4] = tested on: TK-10
# [5] = tested on: SK-MEL-2
# [6] = tested on: HOP-62
# [7] = tested on: DU-145
# [8] = tested on: HOP-92
# [9] = tested on: SF-539
# [10] = tested on: A549
# [11] = tested on: U-251
# [12] = tested on: T47D
# [13] = tested on: UO-31
# [14] = tested on: Hs-578T
# [15] = tested on: ACHN
# [16] = tested on: LOX IMVI
# [17] = tested on: CCRF-CEM
# [18] = tested on: PC-3
# [19] = tested on: MCF7
SMILES,GI50 [1],GI50 [2],GI50 [3],GI50 [4],GI50 [5],GI50 [6],GI50 [7],GI50 [8],GI50 [9],GI50 [10],GI50 [11],GI50 [12],GI50 [13],GI50 [14],GI50 [15],GI50 [16],GI50 [17],GI50 [18],GI50 [19]
CC[C@@]1(O)C(=O)OCc2c1cc1n(c2=O)Cc2c-1nc1ccccc1c2/C=N\NC(=O)C(N)=O,0.457 µM (active),38.3 µM (inactive),3.04 µM (inactive),43.6 µM (inactive),29 µM (inactive),0.107 µM (active),0.0736 µM (active),0.222 µM (active),0.0217 µM (active),0.859 µM (active),0.0398 µM (active),< 0.01 µM (active),0.284 µM (active),56.9 µM (inactive),< 0.0151 µM (active),0.0389 µM (active),< 0.01 µM (active),4.36 µM (inactive),0.0189 µM (active)
CC(=O)Oc1c2oc3ccc(Cl)cc3c(=O)c2c(O)c2ccsc12,> 100 µM (inactive),> 100 µM (inactive),> 100 µM (inactive),27.6 µM (inactive),> 100 µM (inactive),> 100 µM (inactive),> 100 µM (inactive),> 100 µM (inactive),> 100 µM (inactive),> 100 µM (inactive),> 100 µM (inactive),0.132 µM (active),> 100 µM (inactive),33.3 µM (inactive),> 100 µM (inactive),> 100 µM (inactive),86.1 µM (inactive),> 100 µM (inactive),> 100 µM (inactive)
CC(=O)c1sc2c(c1OC(=O)c1ccc(Cl)cc1Cl)c(=O)n(-c1ccccc1)c(=S)n2-c1ccccc1,0.286 µM (active),13.2 µM (inactive),0.382 µM (active),4.57 µM (inactive),0.264 µM (active),1.41 µM (inactive),21.7 µM (inactive),0.78 µM (active),0.251 µM (active),9.98 µM (inactive),0.342 µM (active),9.27 µM (inactive),0.347 µM (active),0.1 µM (active),0.321 µM (active),0.321 µM (active),0.26 µM (active),0.608 µM (active),8.55 µM (inactive)
CC(=O)OCC1OC(n2c3c(cc(C#N)c2=S)CCCCCC3)C(OC(C)=O)C(OC(C)=O)C1OC(C)=O (stereo not given),> 100 µM (inactive),> 100 µM (inactive),> 100 µM (inactive),> 100 µM (inactive),> 100 µM (inactive),> 100 µM (inactive),> 100 µM (inactive),> 100 µM (inactive),> 100 µM (inactive),> 100 µM (inactive),91 µM (inactive),5.2 µM (inactive),> 100 µM (inactive),97.9 µM (inactive),> 100 µM (inactive),21.5 µM (inactive),47.3 µM (inactive),> 100 µM (inactive),> 100 µM (inactive)
O=C1c2ccccc2C2=Cc3ccccc3C(O)N12 (stereo not given),> 100 µM (inactive),> 100 µM (inactive),26.2 µM (inactive),> 100 µM (inactive),> 100 µM (inactive),> 100 µM (inactive),> 100 µM (inactive),41.3 µM (inactive),> 100 µM (inactive),> 100 µM (inactive),> 100 µM (inactive),70.5 µM (inactive),18.1 µM (inactive),68.4 µM (inactive),> 100 µM (inactive),38.6 µM (inactive),36.5 µM (inactive),> 100 µM (inactive),> 100 µM (inactive)
NCCCNC1(c2cc3ccccc3s2)CCCCC1,2.72 µM (inactive),11.1 µM (inactive),4.17 µM (inactive),3.75 µM (inactive),1.79 µM (inactive),10.7 µM (inactive),12 µM (inactive),11.6 µM (inactive),2.38 µM (inactive),7.1 µM (inactive),2.93 µM (inactive),2.58 µM (inactive),1.93 µM (inactive),11.9 µM (inactive),11.9 µM (inactive),2.31 µM (inactive),2.48 µM (inactive),7.13 µM (inactive),3.69 µM (inactive)
Clc1ccc2c(NCCNc3ccnc4cc(Cl)ccc34)ccnc2c1,16.9 µM (inactive),20 µM (inactive),20 µM (inactive),17.9 µM (inactive),18.9 µM (inactive),16.2 µM (inactive),22.8 µM (inactive),15.2 µM (inactive),12 µM (inactive),18.5 µM (inactive),17.9 µM (inactive),23.6 µM (inactive),15.7 µM (inactive),31.9 µM (inactive),17.8 µM (inactive),17.7 µM (inactive),14.6 µM (inactive),17 µM (inactive),19.7 µM (inactive)
Cc1cccc2c(N)c3cccc(C(=O)NCC[N+](C)(C)Cc4ccccc4[N+](=O)[O-])c3nc12,8.97 µM (inactive),8.32 µM (inactive),9.64 µM (inactive),6.62 µM (inactive),25.8 µM (inactive),7.48 µM (inactive),8.69 µM (inactive),10 µM (inactive),7.94 µM (inactive),2.24 µM (inactive),5 µM (inactive),14.2 µM (inactive),13.4 µM (inactive),6.35 µM (inactive),2.31 µM (inactive),26.2 µM (inactive),1.78 µM (inactive),7.14 µM (inactive),4.35 µM (inactive)
CCOC(=O)C1(Cc2ccccc2)Cc2cc3c(cc2C1=O)CCC3 (stereo not given),> 100 µM (inactive),> 100 µM (inactive),> 100 µM (inactive),> 100 µM (inactive),> 100 µM (inactive),> 100 µM (inactive),> 100 µM (inactive),> 100 µM (inactive),> 100 µM (inactive),> 100 µM (inactive),> 100 µM (inactive),> 100 µM (inactive),> 100 µM (inactive),> 100 µM (inactive),> 100 µM (inactive),> 100 µM (inactive),> 100 µM (inactive),> 100 µM (inactive),> 100 µM (inactive)
CC(=O)NC(CCCOC(C)=O)C(=O)NC(CCCOC(C)=O)C(=O)NC(CCCOC(C)=O)C(=O)NC(Cc1ccc([N+](=O)[O-])cc1)C(=O)NCC(=O)OCc1ccccc1 (stereo not given),> 100 µM (inactive),> 100 µM (inactive),> 100 µM (inactive),> 100 µM (inactive),> 100 µM (inactive),> 100 µM (inactive),> 100 µM (inactive),> 100 µM (inactive),> 100 µM (inactive),> 100 µM (inactive),> 100 µM (inactive),> 100 µM (inactive),> 100 µM (inactive),> 100 µM (inactive),> 100 µM (inactive),> 100 µM (inactive),> 100 µM (inactive),> 100 µM (inactive),> 100 µM (inactive)
COC(=O)CNC(=O)C(Cc1ccccc1)NC(=O)c1ccc(-c2ccc(Cl)cc2Cl)o1 (stereo not given),10.7 µM (inactive),21.5 µM (inactive),18.4 µM (inactive),24.7 µM (inactive),28.3 µM (inactive),26.8 µM (inactive),37.6 µM (inactive),12.4 µM (inactive),36.3 µM (inactive),25 µM (inactive),28.5 µM (inactive),20.7 µM (inactive),52.6 µM (inactive),15.3 µM (inactive),18.9 µM (inactive),23.5 µM (inactive),10.1 µM (inactive),21.1 µM (inactive),17.8 µM (inactive)
Cn1c(=O)n2n(c1=O)Cc1cccc3cccc(c13)C2,> 100 µM (inactive),> 100 µM (inactive),53.6 µM (inactive),> 100 µM (inactive),> 100 µM (inactive),–,> 100 µM (inactive),> 100 µM (inactive),> 100 µM (inactive),> 100 µM (inactive),> 100 µM (inactive),> 100 µM (inactive),63.8 µM (inactive),> 100 µM (inactive),> 100 µM (inactive),> 100 µM (inactive),> 100 µM (inactive),> 100 µM (inactive),> 100 µM (inactive)
C#CCn1c(=O)c(I)cn(/C(=C/C(=O)OCC)C(=O)OCC)c1=O,19.1 µM (inactive),8.22 µM (inactive),3.61 µM (inactive),0.3 µM (active),15.5 µM (inactive),17.5 µM (inactive),10 µM (inactive),1.75 µM (inactive),7.21 µM (inactive),18 µM (inactive),16.6 µM (inactive),0.818 µM (active),1.53 µM (inactive),15 µM (inactive),1.67 µM (inactive),4.95 µM (inactive),3.53 µM (inactive),5.06 µM (inactive),2.12 µM (inactive)
O=C1c2cc([N+](=O)[O-])sc2C(=O)c2cc([N+](=O)[O-])sc21,16.2 µM (inactive),4.51 µM (inactive),6.03 µM (inactive),5.89 µM (inactive),6.7 µM (inactive),6.21 µM (inactive),10.3 µM (inactive),1.85 µM (inactive),3.2 µM (inactive),20.2 µM (inactive),1.79 µM (inactive),3.55 µM (inactive),3.19 µM (inactive),9.18 µM (inactive),3.85 µM (inactive),1.36 µM (inactive),0.711 µM (active),4.6 µM (inactive),2.58 µM (inactive)

# From ChEMBL document CHEMBL1201862, “PubChem BioAssay data set” (2004)
